For test [1], the target named is T1, PTPN2 (HiBIT-PTPN2 in 293T.109 cells) (Homo sapiens, UniProt P17706).
T1 construct: expressed in transfected cells; host or cells: 293T.109 (293T WT from ATCC)
T1 sequence (P17706 1-415): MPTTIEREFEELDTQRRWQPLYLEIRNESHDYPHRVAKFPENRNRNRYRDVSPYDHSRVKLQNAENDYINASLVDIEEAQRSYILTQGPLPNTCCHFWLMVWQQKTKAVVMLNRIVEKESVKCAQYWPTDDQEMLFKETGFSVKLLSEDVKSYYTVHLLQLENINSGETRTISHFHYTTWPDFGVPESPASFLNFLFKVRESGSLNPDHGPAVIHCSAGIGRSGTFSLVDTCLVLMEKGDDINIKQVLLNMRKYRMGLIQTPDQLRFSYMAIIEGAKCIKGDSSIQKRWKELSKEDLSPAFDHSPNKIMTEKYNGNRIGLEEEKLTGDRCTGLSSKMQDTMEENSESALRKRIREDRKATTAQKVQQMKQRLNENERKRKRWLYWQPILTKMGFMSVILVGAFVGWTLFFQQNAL
The experiment in a line: HiBiT Degradation 293T.109 PTPN2 (Nano-Glo HiBiT Lytic Assay). It is filed as cell-based. Conditions: 24.0 hours. An excerpt:
Dulbecco's modified Eagle medium (DMEM) without phenol red and fetal bovine serum (FBS) were purchased from Gibco (Grand Island, NY, USA). Nano-Glo® HiBIT Lytic Assay System was purchased from Promega (Madison, WI, USA). 293T.109 (HiBIT-PTPN2) cell line was generated by ectopically expressing PTPN2 with N-terminal HiBIT fusion tag in 293T WT cell line purchased from ATCC (Manassas, VA, USA). Cell culture flasks and 384-well microplates were acquired from VWR (Radnor, PA, USA).
PTPN2 degradation was determined based on quantification of luminescent signal using Nano-Glo® HiBIT Lytic Assay kit. Test compounds were added to the 384-well plate from a top concentration of 10 μM with 11 points, half log titration in duplicates. 293T.109 cells were added into 384-well plates at a cell density of 5000 cells per well. The plates were kept at 37° C. with 5% CO2 for 24 hours. The cells treated in the absence of the test compound were the negative control and the cells without Nano-Glo® HiBIT Lytic reagent were the positive control. After 24-hour incubation, Nano-Glo® HiBiT Lytic Assay reagents were added to the cells. Luminescence was acquired on EnVision™ Multilabel Reader (PerkinElmer, Santa Clara, CA, USA).
A general note: With HiBiT, luminescence reflects the tagged protein that the partner subunit can reach.

For another test, the target named is T2, PTPN2 (B16F10.4 cells) (Mus musculus, UniProt Q06180).
T2 construct: HiBiT; host or cells: B16F10.4
T2 sequence (Q06180 1-406): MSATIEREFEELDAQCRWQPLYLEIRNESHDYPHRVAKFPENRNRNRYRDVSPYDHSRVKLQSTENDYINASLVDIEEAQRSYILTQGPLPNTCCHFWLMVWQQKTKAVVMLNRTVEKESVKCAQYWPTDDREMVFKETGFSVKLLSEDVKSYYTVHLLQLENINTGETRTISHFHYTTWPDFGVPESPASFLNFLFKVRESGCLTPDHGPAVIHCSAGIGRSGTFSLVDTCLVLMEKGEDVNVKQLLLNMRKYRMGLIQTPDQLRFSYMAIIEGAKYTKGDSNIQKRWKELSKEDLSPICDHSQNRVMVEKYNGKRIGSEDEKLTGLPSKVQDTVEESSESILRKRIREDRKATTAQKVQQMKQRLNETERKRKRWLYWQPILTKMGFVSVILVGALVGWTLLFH
The experiment in a line: HiBiT Degradation B16F10.4 PTPN2. It counts as cell-based. As to conditions: 24.0 hours.

This passage reports DC50 results from patent US20250302815A1, “PROTEIN TYROSINE PHOSPHATASE TARGETING LIGANDS” (CALICO LIFE SCIENCES LLC, priority 2021, published 2025).

As for `Cn1c(=O)n(C2CCC(=O)NC2=O)c2ccc(C3CCCN(C(=O)Nc4cccc(CS(=O)(=O)N5CC[C@H](Nc6cccc(-c7sc(C(=O)O)c(OCC(=O)O)c7Cl)c6)CC5(C)C)c4)C3)cc21` (stereo partly drawn) [Example 203, 3-(carboxymethoxy)-4-chloro-5-[3-[[(4S)-1-[[3-[[3-[1-(2,6-dioxo-3-piperidyl)-3-methyl-2-oxo-benzimidazol-5-yl]piperidine-1-carbonyl]amino]phenyl]methylsulfonyl]-2,2-dimethyl-4-piperidyl]amino]phenyl]thiophene-2-carboxylic acid], the DC50 (usually the midpoint of the concentration-degradation curve) in test [1] is 200 to 1000 nM; at PTPN2 (B16F10.4 cells), 50 to 200 nM.
The matching figures for `Cn1c(=O)n(C2CCC(=O)NC2=O)c2ccc(N3CCC(CCNC(=O)Nc4cccc(CS(=O)(=O)N5CC[C@H](Nc6cccc(-c7sc(C(=O)O)c(OCC(=O)O)c7Cl)c6)CC5(C)C)c4)CC3)cc21` (stereo partly drawn) [Example 174, 3-(carboxymethoxy)-4-chloro-5-[3-[[(4S)-1-[[3-[2-[1-[1-(2,6-dioxo-3-piperidyl)-3-methyl-2-oxo-benzimidazol-5-yl]-4-piperidyl]ethylcarbamoylamino]phenyl]methylsulfonyl]-2,2-dimethyl-4-piperidyl]amino]phenyl]thiophene-2-carboxylic acid]: below 50 nM and 50 to 200 nM.
For `CC1(C)C[C@@H](Nc2cccc(-c3sc(C(=O)O)c(OCC(=O)O)c3Cl)c2)CCN1S(=O)(=O)Cc1cccc(NC(=O)[C@H]2CC[C@@H](c3ccc4c5c(cccc53)C(=O)N4C3CCC(=O)NC3=O)CC2)c1` (stereo partly drawn) [Example 166, 3-(carboxymethoxy)-4-chloro-5-(3-(((4S)-1-((3-((1s,4R)-4-(1-(2,6-dioxopiperidin-3-yl)-2-oxo-1,2-dihydrobenzo[cd]indol-6-yl)cyclohexane-1-carboxamido)benzyl)sulfonyl)-2,2-dimethylpiperidin-4-yl)amino)phenyl)thiophene-2-carboxylic acid], the DC50 (in test [1]; at PTPN2 (B16F10.4 cells)) was 50 to 200 nM in each case.
In the case of `Cn1c(=O)n(C2CCC(=O)NC2=O)c2ccc(Nc3ccc(C(=O)Nc4cccc(CS(=O)(=O)N5CC[C@H](Nc6cccc(-c7sc(C(=O)O)c(OCC(=O)O)c7Cl)c6)CC5(C)C)c4)cc3)cc21` (stereo partly shown) [Example 144], the DC50 in test [1] was below 50 nM; on PTPN2 (B16F10.4 cells), 50 to 200 nM.
Consider `O=C(O)COc1c(C(=O)O)sc(-c2cccc(NC3CCN(S(=O)(=O)Cc4cccc(NC(=O)CN5CCC(c6ccc7c(c6)CN(C6CCC(=O)NC6=O)C7=O)CC5)c4)CC3)c2)c1Cl` (stereo not shown) [Example 45], for which the DC50 (in test [1]; on PTPN2 (B16F10.4 cells)) was 200 to 1000 nM throughout.
`Cn1c(=O)n(C2CCC(=O)NC2=O)c2ccc(-c3cnn(CC(=O)Nc4cccc(CS(=O)(=O)N5CC[C@H](Nc6cccc(-c7sc(C(=O)O)c(OCC(=O)O)c7Cl)c6)CC5(C)C)c4)c3)cc21` (stereo partly drawn) [Example 194, 3-(carboxymethoxy)-4-chloro-5-[3-[[(4S)-1-[[3-[[2-[4-[1-(2,6-dioxo-3-piperidyl)-3-methyl-2-oxo-benzimidazol-5-yl]pyrazol-1-yl]acetyl]amino]phenyl]methylsulfonyl]-2,2-dimethyl-4-piperidyl]amino]phenyl]thiophene-2-carboxylic acid]: the DC50 in test [1] fell in the range of 200 to 1000 nM; at PTPN2 (B16F10.4 cells) it was 50 to 200 nM.
Turning to `CC1(C)C[C@@H](Nc2cccc(-c3sc(C(=O)O)c(OCC(=O)O)c3Cl)c2)CCN1S(=O)(=O)Cc1cccc(NC(=O)C2CN(C(=O)CNc3cccc4c3CN([C@H]3CCC(=O)NC3=O)C4=O)C2)c1` (single isomer, unassigned) [Example 44b], the DC50 is below 50 nM in test [1] and 200 to 1000 nM at PTPN2 (B16F10.4 cells).
On to `O=C(O)COc1c(C(=O)O)sc(-c2cccc(NC3CCN(S(=O)(=O)Cc4cccc(NC(=O)CCCCCCNC(=O)CNc5ccc6c(c5)CN(C5CCC(=O)NC5=O)C6=O)c4)CC3)c2)c1Cl` (stereo not shown) [Example 25, 3-(carboxymethoxy)-4-chloro-5-[3-[[1-[[3-[7-[[2-[[2-(2,6-dioxo-3-piperidyl)-1-oxo-isoindolin-5-yl]amino]acetyl]amino]heptanoylamino]phenyl]methylsulfonyl]-4-piperidyl]amino]phenyl]thiophene-2-carboxylic acid], for which the DC50 (in test [1]; on PTPN2 (B16F10.4 cells)) was 200 to 1000 nM each time.
